In patent publication US10611797B2, “Peptide having anticancer activity, and pharmaceutical composition and dietary supplement composition for preventing and treating cancer, both of which contain same as active ingredient” (IUCF-HYU (INDUSTRY-UNIVERSITY COOPERATION FOUNDATION …, priority 2015, dated 2020):

Assays:
[1] = tested on: cancer cell lines (HepG2, Hep3B, 293T, MCF-7, MDA-MB-231, K562, HEL, HL60, U251, U373MG, U87MG); assay: Microscopic observation of growth inhibition and apoptosis, cancer cell lines; assay type: cell-based, human; conditions: 2 μM, 48 h
Method: (§2) Liver cancer cell lines (HepG2, Hep3B), a human embryonic kidney cell line (293T), breast cancer cell lines (MCF-7, MDA-MB-231), blood tumor cell lines (K562, HEL, HL60), glioblastoma cell lines (U251, U373MG, U87MG), a mammary epithelial cell line (MCF10A), a lung epithelial cell line (BEAS2B), human mesenchymal stem cells (hMSCs), and mouse primary T cells (resting and activated T cells) were inoculated into 96-well plates at a density of 3,000 cells/well, supplemented with 50 μl of culture solution, and cultured at 37° C. and 5% CO2 for 1 h. […] After completion of the culture, cells were observed under an inverted phase contrast microscope and their morphological changes were imaged.

[2] = tested on: MCF-7, 293T, MDA-MB-231 mammospheres; assay: Mammosphere culture of cancer cell lines, microscopy; assay type: cell-based, human; conditions: 2 μM, 4 days
Source text: Cancer cell lines (MCF-7, 293T, MDA-MB-231) were inoculated at a density of 1×10^4 cells/ml into polyHEMA-coated 100 phi Petri dishes. […] Cells were observed under an inverted phase contrast microscope once a day and their morphological changes were imaged. […] Mammosphere culture of cancer cell lines is known to increase the number of cancer stem cells.

[3] = tested on: human embryonic stem cell line (H9) and co-cultured cells; assay: Microscopy of human embryonic stem cell line (H9) in co-culture; assay type: cell-based
Method: Two colonies of a human embryonic stem cell line (H9) per well were inoculated into 96-well plates on which normal embryonic epithelial cells or embryonic epithelial cells fluorescently stained with rhodamine were plated, followed by culture for 24 h.

[4] = tested on: CD34+ hematopoietic progenitor cells (HPCs); assay: Microscopy of hematopoietic progenitor cells and cells differentiating into erythrocytes; assay type: cell-based, human; conditions: up to 10 μM, 72 h; days 3, 7, 14 of differentiation
Method: Cells were observed under an inverted phase contrast microscope and their morphological changes were imaged. The CD34+ hematopoietic progenitor cells were cultured in IMDM media containing 1% BSA. For differentiation induction into erythrocytes, cells were cultured with EPO, SCF, IL-3, and hydrocortisone for the first 7 days, and thereafter, cultured in media supplemented with EPO, SCF, and IL-3 only.

[5] = tested on: liver cancer cell lines (HepG2, Hep3B); assay: MTT cell viability, liver cancer cell lines; assay type: cell-based, human; conditions: 0-10 μM, 24-96 h
Method: (§3) Liver cancer cell lines (HepG2, Hep3B) were inoculated into 96-well plates at a density of 3000 cells/well, and then 50 μl of culture solution was added thereto. Cells were cultured at 37° C. and 5% CO2 for 1 h. […] Cells were cultured at 37° C. and 5% CO2 for 24, 48, 72, and 96 h. After completion of the culture, the remaining culture solution was removed from the well plates, the cultures were diluted with MTT solution (3-(4,5-dimethylthiazol-2-yl)-2,5-diphenyltetrazole bromide) to a final density of 500 μg/ml, and cells were cultured at 37° C. and 5% CO2 for 3 h. The remaining MTT solution was removed and 150 μl of dimethyl sulfoxide (DMSO) was added. The reaction was carried out at room temperature for 20 min. After completion of the reaction, absorbance was measured using a microplate reader.

[6] = tested on: breast cancer cell lines (MCF7, MDA-MB-231); assay: MTT cell viability, breast cancer cell lines; assay type: cell-based, human; conditions: 0-10 μM, 24-96 h
Method: as §3

[7] = tested on: glioblastoma cell lines (U251, U87MG, U343); assay: MTT cell viability, glioblastoma cell lines; assay type: cell-based, human; conditions: 0-10 μM, 24-96 h
Method: as §3

[8] = tested on: human blood cancer cell lines (K562, HEL, HL60); assay: MTT cell viability, human blood cancer cell lines; assay type: cell-based; conditions: 0-10 μM, 24-96 h
Method: as §3

[9] = tested on: human embryonic kidney cancer cell line (293T); assay: MTT cell viability, 293T; assay type: cell-based; conditions: 0-10 μM, 24-96 h
Method: as §3

[10] = tested on: glioblastoma cell lines (U343, U373MG, U251, U87MG); assay: IC50 of Peptide 5-2C over time in glioblastoma cell lines; assay type: cell-based, human; conditions: one-time treatment
Method: After one-time treatment of various glioblastoma cell lines (U343, U373MG, U251, and U87MG) with Peptide 5-2C, IC50 values were measured with time using the Graph Prism Pad 6 program.

[11] = tested on: U343 glioblastoma cell line tumors; assay: Mouse model transplanted with U343 glioblastoma cell line; assay type: in vivo; conditions: 3 mg/kg directly into tumor sites every three days, day 70, vs physiological saline
Method: U343 glioblastoma cell line (2.5×10^6 cells/50 μl) was injected subcutaneously into the backs of 5-week-old male BALB/C nude mice (n=6/group), Peptide 5-2C (3 mg/kg) was directly injected into the tumor sites every three days from the time when the tumor sizes increased to about 8 mm^2, the body weights of the mice and the volumes of the tumors were measured, the mice were sacrificed on day 70 after the peptide injection, and the tumors, blood, and major organs were excised. The tumor sizes were measured using a vernier calipers and the tumor volumes were calculated by (major axisxminor axis^2)/2. Peripheral blood was collected from the ophthalmic artery of each mouse using a microcapillary coated with EDTA and stored in a sample tube coated with 5.4 mg EDTA. The tumors and the major organs were excised by dissection. The collected blood was subjected to a fundamental complete blood cell count (CBC) using a Coulter LH 750 Hematology analyzer. After the tumors were weighed, the tumors and the major organs were stained with 4% formaldehyde. Tissue slices were prepared through paraffin section and stained with hematoxylin/eosin. Acquired data were statistically analyzed using the Excel program.

[12] = tested on: A431 human epidermoid carcinoma cell line tumors; assay: Mouse model transplanted with A431 epidermoid carcinoma cell line; assay type: in vivo; conditions: 1.7 and 3.5 mg/kg, tail vein, every other day, five times, day 13
Method: After the tumors were weighed, the tumors and the major organs were stained with 4% formaldehyde. Tissue slices were prepared through paraffin section and stained with hematoxylin/eosin. Acquired data were statistically analyzed using the Excel program.

[13] = tested on: MDA-MB-231 cell line (LM1 cells) tumors and lung metastasis; assay: Mouse model transplanted with MDA-MB-231 (LM1) breast cancer cell line; assay type: in vivo
Method: The collected blood was subjected to a fundamental CBC using a Coulter LH 750 Hematology analyzer. After the tumors were weighed, the tumors and the major organs were stained with 4% formaldehyde. Tissue slices were prepared through paraffin section and stained with hematoxylin/eosin. Acquired data were statistically analyzed using the Excel program.

CP2c = assay: Luciferase reporter assay of CP2c transcriptional activity in 293T cells; assay type: cell-based, human; conditions: 2 μM, 48 h, wild-type CP2c binding sites, compared with FQI1
Method: 293T cells were inoculated into a 12-well plate at a density of 1×10^5 cells/well. 12 h after inoculation, cells were transfected with combinations of a reporter vector (the wild-type reporter links the enhancer sequence of the GATA-1 gene including twice repeated CP2c-binding sites to the upstream of the luciferase gene and Mut 1/3, Mut 2/4, and Mut 1-4 reporters cause mutations of the CP2c binding sites present in the enhancer sequence) and various Flag-CP2c, HA-CP2b, and HA-PIAS1 expression vectors by using the effectene method. After 1-h culture, cells were treated with FQI1, Peptide 5C, and Peptide 5-2C at concentrations of 2 μM, followed by 48-h culture. Cells were harvested and lysed in 250 μl of passive cell lysis buffer (Promega) to obtain an extract. 20 μl of the cell extract and a dual-luciferase assay kit (Promega) were used to measure the activity of the labeled luciferase gene in GLOMAX (Promega) (the expression of each expression vector was confirmed by Western blotting).

MCF-10A cell line = assay: Cell cycle analysis by FACS, MCF-10A; assay type: cell-based, human; conditions: 0, 1, 2, 3, 10 μM, 48 h
Method: (§1) 5×10^5 cells of each of MEL, K562, MCF-10A, and MDA-MB-231 cell lines were inoculated into 100 mm dishes. 24 h after inoculation, cells were treated with Peptide 5-2C such that the final concentrations were 0, 1, 2, 3, and 10 μM. 48 h after Peptide 5-2C treatment, cells were collected by trypsin treatment. Thereafter, 1×10^6 cells were suspended in 0.5 ml PBS and dissociated into single cells by pipetting. The cell suspension was transferred to a centrifugal tube containing 4.5 ml of 70% ethanol and allowed to stand at 4° C. for 2 h to immobilize the cells. A cell sediment was obtained by centrifugation, washed with 5 ml of PBS solution, sufficiently suspended in 1 ml of PI staining solution, and stained in the dark for 30 min. Cell fluorescence was measured in BD FACSAria and cell cycle was analyzed using the software provided from the same company.

MEL cell line = assay: Cell cycle analysis by FACS, MEL; assay type: cell-based, mouse; conditions: 0, 1, 2, 3, 10 μM, 48 h
Method: as §1

[14] = tested on: K562 cell line and MDA-MB-231 cell line; assay: Cell cycle analysis by FACS, K562 and MDA-MB-231; assay type: cell-based, human; conditions: 0, 1, 2, 3, 10 μM, 48 h
Method: as §1

MCF7 cell line = assay: Western blotting of cell cycle-related marker proteins in MCF7; assay type: cell-based, human; conditions: 2 μM for 0-72 h; 1, 2, 3 μM for 48 h
Method: 1×10^5 cells of MCF7 breast cancer cell line were inoculated into a 6-well plate. 24 h after inoculation, cells were treated with Peptide 5-2C at a final concentration of 2 μM. After 0, 24, 48, and 72 h, cell extracts were collected in the same manner as in Example 6. Western blotting was performed using various antibodies against cell cycle-related marker genes. On the other hand, cell extracts were obtained from the groups treated with Peptide 5-2C at final concentrations of 1, 2, and 3 μM for 48 h and Western blotting was performed in the same manner.

MDA-MB-231 cell line = assay: Electron microscopy of cell morphology, MDA-MB-231; assay type: cell-based, human; conditions: 2 μM, 24 and 48 h
Source text: The collected cells were washed once with physiological saline.

[15] = tested on: normal cell lines (MCF10A, BEAS2B, hMSCs, mouse primary T cells)
Method: as §2

[16] = tested on: human mesenchymal stem cells (hMSC)
[17] = tested on: human embryonic stem cells (hESCs, H9)
Source text: MEF cells labeled with rhodamine were often used to distinguish them from hESC-derived cells.

[18] = 1.7 and 3.5 mg/kg, tail vein, every three days, five times, day 30, vs control

Method for MCF10A cell line: 1.5×10^6 cells of MDA-MB-231 cell line and 5×10^5 cells of MCF10A cell line were inoculated into 100 mm dishes. […] After culture for 24 and 48 h, cells were collected. The culture solution was centrifuged and surface adherent cells were collected by trypsin treatment. The collected cells were washed once with physiological saline. The cell sediment was directly treated twice with 2.5% aqueous glutaraldehyde solution (each for 10 min). Samples for electron microscopy were prepared and imaged in accordance with general methods.

## NYPQRPCRGDKGPDC [Peptide 5-2C, Ac-NYPQRPCRGDKGPDC-Amide]
[1]
  growth inhibition and apoptosis induction of cancer cell lines (microscopy): specifically inhibited the growth of the cancer cell lines and induced apoptosis
[2]
  formation of mammospheres and cell growth: the formation of mammospheres was effectively inhibited and cell growth was decreased
[3]
  death of embryonic stem cells and co-cultured cells: none of the embryonic stem cells and the co-cultured cells died
[4]
  growth inhibition and apoptosis of HPCs and cells differentiating into erythrocytes (microscopy): growth inhibition and apoptosis of the cells were not observed
[5]
  relative viability (MTT), liver cancer cell lines, compared with FQI1: more effectively inhibited the growth of the liver cancer cell lines and induced apoptosis than FQI1
[6]
  relative viability (MTT), breast cancer cell lines, compared with FQI1: more effectively inhibited the growth of the breast cancer cell lines and induced apoptosis than FQI1
[7]
  relative viability (MTT), glioblastoma cell lines, compared with FQI1: more effectively inhibited the growth of the glioblastoma cell lines and induced apoptosis than FQI1
[8]
  relative viability (MTT), K562, HEL, HL60, compared with FQI1: slightly effectively inhibited the growth of the glioblastoma cell lines and induced apoptosis compared to FQI1
[9]
  relative viability (MTT), 293T, compared with FQI1: inhibited the growth of the glioblastoma cell lines and induced apoptosis similarly to FQI1
[10]
  IC50 at 48 h compared with 96 h: the IC50 values after 48 h were similar to those after 96 h
[11]
  body weight, major CBC indices, histologic/anatomic characteristics of major organs: there were no differences in the weight of the mice, the major CBC indices of the mice, and the histologic/anatomic characteristics of the major organs
  reduction of tumor volume: ~60%
  reduction of tumor weight: ~60%
[12]
  histologic/anatomic characteristics of the major organs: no significant changes in the histologic/anatomic characteristics of the major organs
  reduction of tumor volume: ≥ 70%
  reduction of tumor weight: ≥ 60%
[13]; [18]
  reduction of number of tumor foci metastasized to the lung: ~50%
  reduction of tumor weights: ~30%
[13]; control tumor mice had twice the number of normal mice
  number of leukocytes: close to the normal value
CP2c
  CP2c-mediated transcriptional activity (luciferase reporter): effectively inhibit CP2c-mediated transcriptional activity compared to FQI1
MCF-10A cell line
  cell cycle changes in MCF-10A: no substantial changes in cell cycle were observed
MEL cell line
  number of cells in subG1 phase in MEL: the number of cells in the subG1 phase was significantly increased only at high concentrations
[14]
  cell cycle phase distribution in K562 and MDA-MB-231: the number of cells in the S phase was decreased, the number of cells in the G2/M phase was increased, and an increase in the number of cells in the subG1 phase was dependent on the concentration of Peptide 5-2C
MCF7 cell line
  expression of cell cycle-related marker proteins: the expressions of Cyclin E, p21, and p53 increased gradually and the expressions of CDK1 and Cyclin B1 decreased gradually
MDA-MB-231 cell line
  intracellular structural abnormalities in MDA-MB-231 (electron microscopy): significantly different intracellular structural abnormalities were observed in the Peptide 5-2C-treated group compared to in the FQI1-treated group
[15]
  effect on normal cell lines (microscopy): without substantially affecting the normal cell lines
[16]
  cytotoxicity (MTT) in hMSC: no substantial cytotoxicity even at high concentrations
[17]
  cytotoxicity (MTT) in hESCs: no substantial cytotoxicity even at high concentrations
MCF10A cell line
  intracellular structural abnormalities in MCF10A (electron microscopy): no intracellular structural abnormalities were observed
